Source: the supplement of paper PMC10307832

What was measured:
Assay in all cases: relative viability (nuclei count vs DMSO), 5 days (fraction); higher = more cells survive
NCI-H596 = tested on: NCI-H596
Outline: (§1)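 Lung cancer cell lines were pin-tool dosed in 1536-well plates on the day after seeding, with either a lone drug or a fixed anchor-drug dose plus five library-drug doses (not always all listed) in √10 steps. Nuclei were counted on 4× images after 5 days. Relative viability is the ratio of treated-well to vehicle-well nuclei counts, with each value a median of duplicate plates.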

EKVX = tested on: EKVX
Outline: as §1

NCI-H1975 = tested on: NCI-H1975
Outline: as §1

NCI-H441 = tested on: NCI-H441
Outline: as §1

NCI-H1437 = tested on: NCI-H1437
Outline: as §1

NCI-H650 = tested on: NCI-H650
Outline: as §1

NCI-H23 = tested on: NCI-H23
Outline: as §1

201T = tested on: 201T
Outline: as §1

NCI-H1792 = tested on: NCI-H1792
Outline: as §1

HCC-827 = tested on: HCC-827
Outline: as §1

NCI-H1650 = tested on: NCI-H1650
Outline: as §1

HCC-44 = tested on: HCC-44
Outline: as §1

NCI-H838 = tested on: NCI-H838
Outline: as §1

HARA = tested on: HARA
Outline: as §1

BEN = tested on: BEN
Outline: as §1

COR-L23 = tested on: COR-L23
Outline: as §1

HCC-15 = tested on: HCC-15
Outline: as §1

A-427 = tested on: A-427
Outline: as §1

COc1cc2nccc(Oc3ccc(NC(=O)Nc4cc(C)on4)c(Cl)c3)c2cc1OC [Tivozanib] + CC(C)C[C@H](NC(=O)[C@H](Cc1ccccc1)NC(=O)c1cnccn1)B(O)O [Bortezomib] (partner 0.002 µM)
relative viability (NCI-H596; first compound 0.005 µM): 1.03
relative viability (NCI-H596; first compound 0.01581 µM): 0.887
relative viability (NCI-H596; first compound 0.05 µM): 0.918
relative viability (NCI-H596; first compound 0.1581 µM): 0.993
relative viability (NCI-H596; first compound 0.5 µM): 1.08
relative viability (EKVX; first compound 0.005 µM): 0.95
relative viability (EKVX; first compound 0.01581 µM): 0.924
relative viability (EKVX; first compound 0.05 µM): 1.11
relative viability (EKVX; first compound 0.1581 µM): 0.987
relative viability (EKVX; first compound 0.5 µM): 1.02
relative viability (NCI-H1975; first compound 0.005 µM): 0.376
relative viability (NCI-H1975; first compound 0.01581 µM): 0.418
relative viability (NCI-H1975; first compound 0.05 µM): 0.361
relative viability (NCI-H1975; first compound 0.1581 µM): 0.363
relative viability (NCI-H1975; first compound 0.5 µM): 0.257
relative viability (NCI-H441; first compound 0.005 µM): 0.43
relative viability (NCI-H441; first compound 0.01581 µM): 0.332
relative viability (NCI-H441; first compound 0.05 µM): 0.332
relative viability (NCI-H441; first compound 0.1581 µM): 0.453
relative viability (NCI-H441; first compound 0.5 µM): 0.34
relative viability (NCI-H1437; first compound 0.005 µM): 0.487
relative viability (NCI-H1437; first compound 0.01581 µM): 0.558
relative viability (NCI-H1437; first compound 0.05 µM): 0.523
relative viability (NCI-H1437; first compound 0.1581 µM): 0.508
relative viability (NCI-H1437; first compound 0.5 µM): 0.399
relative viability (NCI-H650; first compound 0.005 µM): 0.447
relative viability (NCI-H650; first compound 0.01581 µM): 0.956
relative viability (NCI-H650; first compound 0.05 µM): 0.833
relative viability (NCI-H650; first compound 0.1581 µM): 0.579
relative viability (NCI-H650; first compound 0.5 µM): 0.497
relative viability (NCI-H23; first compound 0.005 µM): 0.946
relative viability (NCI-H23; first compound 0.01581 µM): 0.975
relative viability (NCI-H23; first compound 0.05 µM): 1.1
relative viability (NCI-H23; first compound 0.1581 µM): 0.785
relative viability (NCI-H23; first compound 0.5 µM): 0.839
relative viability (201T; first compound 0.005 µM): 1.11
relative viability (201T; first compound 0.01581 µM): 1.08
relative viability (201T; first compound 0.05 µM): 1.06
relative viability (201T; first compound 0.1581 µM): 1.07
relative viability (201T; first compound 0.5 µM): 1.11
relative viability (NCI-H1792; first compound 0.005 µM): 0.961
relative viability (NCI-H1792; first compound 0.01581 µM): 0.967
relative viability (NCI-H1792; first compound 0.05 µM): 0.965
relative viability (NCI-H1792; first compound 0.1581 µM): 0.989
relative viability (NCI-H1792; first compound 0.5 µM): 0.947
relative viability (HCC-827; first compound 0.005 µM): 0.981
relative viability (HCC-827; first compound 0.01581 µM): 1.01
relative viability (HCC-827; first compound 0.05 µM): 1.13
relative viability (HCC-827; first compound 0.1581 µM): 1.08
relative viability (HCC-827; first compound 0.5 µM): 1.03
relative viability (NCI-H1650; first compound 0.005 µM): 0.195
relative viability (NCI-H1650; first compound 0.01581 µM): 0.21
relative viability (NCI-H1650; first compound 0.05 µM): 0.209
relative viability (NCI-H1650; first compound 0.1581 µM): 0.264
relative viability (NCI-H1650; first compound 0.5 µM): 0.196
relative viability (HCC-44; first compound 0.005 µM): 0.895
relative viability (HCC-44; first compound 0.01581 µM): 0.809
relative viability (HCC-44; first compound 0.05 µM): 0.92
relative viability (HCC-44; first compound 0.1581 µM): 0.864
relative viability (HCC-44; first compound 0.5 µM): 0.833
relative viability (NCI-H838; first compound 0.005 µM): 0.939
relative viability (NCI-H838; first compound 0.01581 µM): 0.877
relative viability (NCI-H838; first compound 0.05 µM): 0.924
relative viability (NCI-H838; first compound 0.5 µM): 0.723
relative viability (HARA; first compound 0.005 µM): 1.03
relative viability (HARA; first compound 0.01581 µM): 1.18
relative viability (HARA; first compound 0.05 µM): 1.08
relative viability (HARA; first compound 0.1581 µM): 1.27
relative viability (HARA; first compound 0.5 µM): 1.14
relative viability (BEN; first compound 0.005 µM): 0.703
relative viability (BEN; first compound 0.01581 µM): 0.847
relative viability (BEN; first compound 0.05 µM): 0.873
relative viability (BEN; first compound 0.5 µM): 0.86
relative viability (COR-L23; first compound 0.005 µM): 0.88
relative viability (COR-L23; first compound 0.01581 µM): 0.931
relative viability (COR-L23; first compound 0.05 µM): 1.13
relative viability (COR-L23; first compound 0.1581 µM): 1.01
relative viability (COR-L23; first compound 0.5 µM): 0.869
relative viability (HCC-15; first compound 0.005 µM): 0.98
relative viability (HCC-15; first compound 0.01581 µM): 1.04
relative viability (HCC-15; first compound 0.05 µM): 1.08
relative viability (HCC-15; first compound 0.1581 µM): 1.04
relative viability (HCC-15; first compound 0.5 µM): 1.03
relative viability (A-427; first compound 0.005 µM): 0.988
relative viability (A-427; first compound 0.01581 µM): 1.03
relative viability (A-427; first compound 0.05 µM): 0.962
relative viability (A-427; first compound 0.1581 µM): 0.893
relative viability (A-427; first compound 0.5 µM): 0.932
